Columns and labels:
Format in all cases: in vivo
Set-up in all cases: key: 5=81-100%; 4=61-80%; 3=41-60%; 2=21-40%; 1=1-20%; 0=no damage to the plant; -=not tested
[1] = system: Echinochloa crus-galli (ECHCG); assay: Pre-emergence test, herbicidal damage; details: 1000 g/ha unless otherwise stated, evaluated after 13 days, five-point scale
[2] = system: Amaranthus retoflexus (AMARE); assay: Post-emergence test, herbicidal damage; details: sprayed after 8 days cultivation, 1000 g/ha unless otherwise stated, evaluated after 13 days, five-point scale
Procedure: (§1) Seeds of a variety of test species are sown in standard soil in pots Amaranthus palmeri (AMAPA), (Amaranthus retoflexus (AMARE), Echinochloa crus-galli (ECHCG), Zea mays (ZEAMX), Ipomoea 5 hederacea (IPOHE), and Setaria faberi (SETFA). After 8 days cultivation under controlled conditions in a glasshouse (at 24° C./16° C., day/night; 14 hours light; 65% humidity), the plants are sprayed with an aqueous spray solution derived from the formulation of the technical active ingredient in acetone/water (50:50) solution containing 0.5% Tween 20 (polyoxyethelyene sorbitan monolaurate, CAS RN 9005-64-5). Compounds are applied at 1000 g/ha unless otherwise stated. The test plants are then grown in a glasshouse under controlled conditions in a glasshouse (at 24° C./16° C., day/night; 14 hours light; 65% humidity) and watered twice daily. After 13 days the test is evaluated for the percentage damage caused to the plant. The biological activities are shown in the following table on a five-point scale (5=81-100%; 4=61-80%; 3=41-60%; 2=21-40%; 1=1-20%; 0=no damage to the plant; -=not tested).

Zea mays (ZEAMX) [3] = assay: Post-emergence test, herbicidal damage; details: sprayed after 8 days cultivation, 1000 g/ha unless otherwise stated, evaluated after 13 days, five-point scale
Procedure: as §1

[4] = system: Ipomoea hederacea (IPOHE); assay: Post-emergence test, herbicidal damage; details: sprayed after 8 days cultivation, 1000 g/ha unless otherwise stated, evaluated after 13 days, five-point scale
Procedure: as §1

[5] = system: Amaranthus palmeri (AMAPA); assay: Post-emergence test, herbicidal damage; details: sprayed after 8 days cultivation, 1000 g/ha unless otherwise stated, evaluated after 13 days, five-point scale
Procedure: as §1

Setaria faberi (SETFA) [6] = assay: Post-emergence test, herbicidal damage; details: sprayed after 8 days cultivation, 1000 g/ha unless otherwise stated, evaluated after 13 days, five-point scale
Procedure: as §1

[7] = system: Echinochloa crus-galli (ECHCG); assay: Post-emergence test, herbicidal damage; details: sprayed after 8 days cultivation, 1000 g/ha unless otherwise stated, evaluated after 13 days, five-point scale
Procedure: as §1

[8] = system: Amaranthus retoflexus (AMARE); assay: Pre-emergence test, herbicidal damage; details: 1000 g/ha unless otherwise stated, evaluated after 13 days, five-point scale
Setaria faberi (SETFA) [9] = assay: Pre-emergence test, herbicidal damage; details: 1000 g/ha unless otherwise stated, evaluated after 13 days, five-point scale
[10] = system: Amaranthus palmeri (AMAPA); assay: Pre-emergence test, herbicidal damage; details: 1000 g/ha unless otherwise stated, evaluated after 13 days, five-point scale
[11] = system: Ipomoea hederacea (IPOHE); assay: Pre-emergence test, herbicidal damage; details: 1000 g/ha unless otherwise stated, evaluated after 13 days, five-point scale
Zea mays (ZEAMX) [12] = assay: Pre-emergence test, herbicidal damage; details: 1000 g/ha unless otherwise stated, evaluated after 13 days, five-point scale

Structure (SMILES) | percentage damage caused to the plant, ECHCG [1] | percentage damage caused to the plant, AMARE [2] | percentage damage caused to the plant, ZEAMX (Zea mays (ZEAMX) [3]) | percentage damage caused to the plant, IPOHE [4] | percentage damage caused to the plant, AMAPA [5] | percentage damage caused to the plant, SEFTA (Setaria faberi (SETFA) [6]) | percentage damage caused to the plant, ECHCG [7] | percentage damage caused to the plant, AMARE [8] | percentage damage caused to the plant, SEFTA (Setaria faberi (SETFA) [9]) | percentage damage caused to the plant, AMAPA [10] | percentage damage caused to the plant, IPOHE [11] | percentage damage caused to the plant, ZEAMX (Zea mays (ZEAMX) [12])
Cc1c(C2CC2)c(-c2ccc(Cl)c(Cl)c2)c(C(=O)O)c(=O)n1Cc1ccc(Cl)cc1F [Compound 39, 1-[(4-chloro-2-fluoro-phenyl)methyl]-5-cyclopropyl-4-(3,4-dichlorophenyl)-6-methyl-2-oxo-pyridine-3-carboxylic acid] | 2 (2=21-40%) | 0 | 1 (1=1-20%) | 2 (2=21-40%) | 1 (1=1-20%) | 1 (1=1-20%) | 2 (2=21-40%) | 0 | 2 (2=21-40%) | 1 (1=1-20%) | 1 (1=1-20%) | 1 (1=1-20%)
Cc1c(Cl)c(-c2ccc(Cl)c(Cl)c2)c(C(=O)O)c(=O)n1C [Compound 4, 5-chloro-4-(3,4-dichlorophenyl)-1,6-dimethyl-2-oxo-pyridine-3-carboxylic acid] | 0 | 1 (1=1-20%) | 0 | 0 | 2 (2=21-40%) | 0 | 0 | 1 (1=1-20%) | 0 | 1 (1=1-20%) | 0 | 0
Cc1c(Cl)c(-c2ccc(Cl)c(Cl)c2)c(C(=O)O)c(=O)n1-c1ccc(Cl)cc1 [Compound 3, 5-chloro-1-(4-chlorophenyl)-4-(3,4-dichlorophenyl)-6-methyl-2-oxo-pyridine-3-carboxylic acid] | 1 (1=1-20%) | 4 (4=61-80%) | 1 (1=1-20%) | 2 (2=21-40%) | 4 (4=61-80%) | 1 (1=1-20%) | 0 | 2 (2=21-40%) | 2 (2=21-40%) | 4 (4=61-80%) | 0 | 0
Cc1cc(-c2ccc(Cl)c(Cl)c2)c(C(=O)O)c(=O)n1Cc1ccc(F)cc1F [Compound 31, 4-(3,4-dichlorophenyl)-1-[(2,4-difluorophenyl)methyl]-6-methyl-2-oxo-pyridine-3-carboxylic acid] | 0 | 1 (1=1-20%) | 0 | 0 | 1 (1=1-20%) | 0 | 1 (1=1-20%) | 1 (1=1-20%) | 1 (1=1-20%) | 1 (1=1-20%) | 0 | 0
C=Cc1c(C)[nH]c(=O)c(C(=O)O)c1-c1ccc(Cl)c(Cl)c1 [Compound 8, 4-(3,4-dichlorophenyl)-6-methyl-2-oxo-5-vinyl-1H-pyridine-3-carboxylic acid] | 0 | 1 (1=1-20%) | 1 (1=1-20%) | 1 (1=1-20%) | 1 (1=1-20%) | 1 (1=1-20%) | 1 (1=1-20%) | 0 | 0 | 1 (1=1-20%) | 0 | 0
Cc1cc(-c2ccc(Cl)c(Cl)c2)c(C(=O)O)c(=O)[nH]1 [Compound 7, 4-(3,4-dichlorophenyl)-6-methyl-2-oxo-1H-pyridine-3-carboxylic acid] | 0 | 0 | 0 | 0 | 0 | 0 | 0 | 0 | 0 | 0 | 0 | 0
Cc1cc(-c2ccc(Cl)c(Cl)c2)c(C(=O)O)c(=O)n1-c1cccc(C(F)(F)F)c1 [Compound 15, 4-(3,4-dichlorophenyl)-6-methyl-2-oxo-1-[3-(trifluoromethyl)phenyl]pyridine-3-carboxylic acid] | 0 | 4 (4=61-80%) | 1 (1=1-20%) | 1 (1=1-20%) | 4 (4=61-80%) | 2 (2=21-40%) | 1 (1=1-20%) | 4 (4=61-80%) | 2 (2=21-40%) | 4 (4=61-80%) | 0 | 0
Cc1[nH]c(=O)c(C(=O)O)c(-c2ccc(Cl)c(Cl)c2)c1C [Compound 9, 4-(3,4-dichlorophenyl)-5,6-dimethyl-2-oxo-1H-pyridine-3-carboxylic acid] | 0 | 1 (1=1-20%) | 0 | 1 (1=1-20%) | 1 (1=1-20%) | 0 | 0 | 0 | 0 | 0 | 0 | 0
Cc1c(Cl)c(-c2ccc(Cl)c(Cl)c2)c(C(=O)O)c(=O)n1-c1ccc(Cl)cc1F [Compound 25, 5-chloro-1-(4-chloro-2-fluoro-phenyl)-4-(3,4-dichlorophenyl)-6-methyl-2-oxo-pyridine-3-carboxylic acid] | 2 (2=21-40%) | 3 (3=41-60%) | 1 (1=1-20%) | 1 (1=1-20%) | 3 (3=41-60%) | 1 (1=1-20%) | 1 (1=1-20%) | 4 (4=61-80%) | 2 (2=21-40%) | 4 (4=61-80%) | 1 (1=1-20%) | 1 (1=1-20%)

— US20250289787A1, “HERBICIDAL 2-OXO-NICOTINIC ACID DERIVATIVES” (SYNGENTA CROP PROTECTION AG, priority 2022, published 2025)
